# According to publication PMC11520566, “Discovery of pyrazole-based analogs as CDK2 inhibitors with apoptotic-inducing activity: design, synthesis and molecular dynamics study” (RSC Advances, 2024):
# Key:
# MDA-MB-435 = assay: NCI 60 five dose assay, Melanoma; format: cell-based, human
# NCI 60 cancer cell lines = assay: NCI 60 single dose screen, mean over full panel; format: cell-based, human; details: mean over NCI 60 cell lines; single dose 10 μM
# Protocol: (§1) The newly synthesized pyrazoles 2a–g, 7a–d, 8a and b, 9, and 10 were submitted to the National Cancer Institute (NCI) Developmental Therapeutics Program (http://www.dtp.nci.nih.gov) for assessment of their potential antiproliferative activity against a panel of NCI 60 cancer cell lines. All compounds were approved for screening against the approved 60 cancer cell lines at a single dose of 10 μM. The human cancer cell lines were derived from 9 variant cancer types including leukemia, melanoma, lung, colon, CNS, ovarian, renal, prostate and breast cancers. The results are presented as percentage of growth inhibition (GI%) of the screened compounds against the full panel of cell lines.
# (§2) Under sterile conditions, the cell lines were grown in RPMI 1640 media (Gibco, NY, USA) supplemented with 10% fetal bovine serum (Biocell, CA, USA), and […] cell/mL was used to test the growth inhibition activity of the synthesized compounds. The compounds with concentrations ranging from 0.01 to 100 μM were prepared in phosphate buffer saline. Each compound was initially solubilized in dimethyl sulfoxide (DMSO); however, each final dilution contained less than 1% DMSO. Solutions of different concentrations (0.2 mL) were pipetted into the separate well of a microtiter tray in duplicate. Cell culture (1.8 mL) containing a cell population of […] cells per mL was pipetted into each well. Controls, containing only phosphate buffer saline and DMSO at identical dilutions, were also prepared in the same manner. These cultures were incubated in a humidified incubator at 37 °C. The incubator was supplied with 5% CO2 atmosphere. After 48 h, the cells in each well were diluted 10 times with saline and counted using a Coulter counter. The counts were corrected for the dilution.[34]
# SK-MEL-28 = assay: NCI 60 five dose assay, Melanoma; format: cell-based, human
# NCI-H460 = assay: NCI 60 five dose assay, Non-small cell lung cancer; format: cell-based, human
# K-562 = assay: NCI 60 five dose assay, Leukemia; format: cell-based, human
# SNB-19 = assay: NCI 60 five dose assay, CNS cancer; format: cell-based, human
# RPMI-8226 = assay: NCI 60 single dose screen, Leukemia; format: cell-based, human; details: single dose 10 μM
# Protocol: as §1, §2
# CCRF-CEM = assay: NCI 60 single dose screen, Leukemia; format: cell-based, human; details: single dose 10 μM
# Protocol: as §1, §2
# OVCAR-4 = assay: NCI 60 five dose assay, Ovarian cancer; format: cell-based, human
# SF-268 [1] = assay: NCI 60 single dose screen, CNS cancer; format: cell-based, human; details: single dose 10 μM
# Protocol: as §1
# (§3) Under sterile conditions, the cell lines were grown in RPMI 1640 media (Gibco, NY, USA) supplemented with 10% fetal bovine serum (Biocell, CA, USA), and […] cell/mL was used to test the growth inhibition activity of the synthesized compounds. The compounds with concentrations ranging from 0.01 to 100 μM were prepared in phosphate buffer saline. Each compound was initially solubilized in dimethyl sulfoxide (DMSO); however, each final dilution contained less than 1% DMSO. Solutions of different concentrations (0.2 mL) were pipetted into the separate well of a microtiter tray in duplicate. […] After 48 h, the cells in each well were diluted 10 times with saline and counted using a Coulter counter. […]
# SF-295 = assay: NCI 60 single dose screen, CNS cancer; format: cell-based, human; details: single dose 10 μM
# Protocol: as §1, §3
# HCT-116 cells = assay: Flow cytometric analysis of apoptosis (Annexin V-FITC/PI); format: cell-based; details: 1.806 μM, 48 h
# Protocol: For the detection of apoptosis in the treated cells, the Annexin V-FITC-apoptosis detection kit (PN IM3546) was used, followed by flow cytometric analysis according to the manufacturer's protocol. In this assay, HCT-116 cells were allowed to grow in a […] flask until 70–80% confluence. Then, the HCT-116 cells were treated with compound 4 for 48 h, followed by washing with PBS, and suspended in binding buffer. To […] of the cell suspension, […] of annexin V-FITC solution and […] of dissolved PI were added and incubated for 15 min in the dark. Then […] of ice-cold binding buffer was added and mixed gently. The flow cytometric analysis of the percentage of apoptotic cells was performed on a COULTER® EPICS® XL™ Flow Cytometer (USA).[35]
# HCT-116 cell line = assay: MTT cell viability assay; format: cell-based; details: Homo sapiens, read-out: IC50 (cytotoxicity, MTT)
# UO-31 = assay: NCI 60 five dose assay, Renal cancer; format: cell-based, human
# EKVX = assay: NCI 60 five dose assay, Non-small cell lung cancer; format: cell-based, human
# SF-268 [2] = assay: NCI 60 five dose assay, CNS cancer; format: cell-based, human
# LOX IMVI = assay: NCI 60 five dose assay, Melanoma; format: cell-based, human
# [3] = Homo sapiens, read-out: LC50 (the source's name)
compound,measurement,setting,value
"CC(=NNc1ccc(S(N)(=O)=O)cc1)c1ccc(NN=C2C(=O)NN=C2Nc2ccccc2)cc1 [Compound 4, 4-(2-(1-(4-(2-(5-oxo-3-(phenylamino)-1,5-dihydro-4H-pyrazol-4-ylidene)hydrazinyl)phenyl)ethylidene)hydrazinyl)benzene sulfonamide]",GI50,MDA-MB-435; Homo sapiens,2.07 µM
same,CC50,MDA-MB-435; [3],17.8 µM
same,Percent Growth,MDA-MB-435; Log10 Concentration -4.0 Molar,-83%
same,Percent Growth,MDA-MB-435; Log10 Concentration -5.0 Molar,-39%
same,Percent Growth,MDA-MB-435; Log10 Concentration -6.0 Molar,91%
same,Percent Growth,MDA-MB-435; Log10 Concentration -7.0 Molar,98%
same,Percent Growth,MDA-MB-435; Log10 Concentration -8.0 Molar,90%
same,mean GI%,NCI 60 cancer cell lines,96.47%
same,GI50,SK-MEL-28; Homo sapiens,1.91 µM
same,CC50,SK-MEL-28; [3],6.99 µM
same,Percent Growth,SK-MEL-28; Log10 Concentration -4.0 Molar,-93%
same,Percent Growth,SK-MEL-28; Log10 Concentration -5.0 Molar,-78%
same,Percent Growth,SK-MEL-28; Log10 Concentration -6.0 Molar,100%
same,Percent Growth,SK-MEL-28; Log10 Concentration -7.0 Molar,109%
same,Percent Growth,SK-MEL-28; Log10 Concentration -8.0 Molar,96%
same,GI50,NCI-H460; Homo sapiens,3.21 µM
same,CC50,NCI-H460; [3],45.3 µM
same,Percent Growth,NCI-H460; Log10 Concentration -4.0 Molar,-78%
same,Percent Growth,NCI-H460; Log10 Concentration -5.0 Molar,4%
same,Percent Growth,NCI-H460; Log10 Concentration -6.0 Molar,97%
same,Percent Growth,NCI-H460; Log10 Concentration -7.0 Molar,103%
same,Percent Growth,NCI-H460; Log10 Concentration -8.0 Molar,102%
same,GI50,"K-562; Homo sapiens, K562",2.29 µM
same,CC50,"K-562; Homo sapiens, K562, read-out: LC50 (the source's name)",22.8 µM
same,Percent Growth,K-562; Log10 Concentration -4.0 Molar,-100%
same,Percent Growth,K-562; Log10 Concentration -5.0 Molar,-22%
same,Percent Growth,K-562; Log10 Concentration -6.0 Molar,90%
same,Percent Growth,K-562; Log10 Concentration -7.0 Molar,87%
same,Percent Growth,K-562; Log10 Concentration -8.0 Molar,88%
same,GI50,SNB-19; Homo sapiens,2.59 µM
same,CC50,SNB-19; [3],29.6 µM
same,Percent Growth,SNB-19; Log10 Concentration -4.0 Molar,-100%
same,Percent Growth,SNB-19; Log10 Concentration -5.0 Molar,-5%
same,Percent Growth,SNB-19; Log10 Concentration -6.0 Molar,89%
same,Percent Growth,SNB-19; Log10 Concentration -7.0 Molar,94%
same,Percent Growth,SNB-19; Log10 Concentration -8.0 Molar,91%
same,GI%,RPMI-8226,96.53%
same,GI%,CCRF-CEM,96.41%
same,GI50,OVCAR-4; Homo sapiens,2.84 µM
same,CC50,OVCAR-4; [3],40.7 µM
same,Percent Growth,OVCAR-4; Log10 Concentration -4.0 Molar,-80%
same,Percent Growth,OVCAR-4; Log10 Concentration -5.0 Molar,-3%
same,Percent Growth,OVCAR-4; Log10 Concentration -6.0 Molar,94%
same,Percent Growth,OVCAR-4; Log10 Concentration -7.0 Molar,98%
same,Percent Growth,OVCAR-4; Log10 Concentration -8.0 Molar,94%
same,GI%,SF-268 [1],90.67%
same,GI%,SF-295,94.88%
same,"Apoptosis, Late",HCT-116 cells; control 0.13,15.81%
same,"Apoptosis, Early",HCT-116 cells; control 0.35,4.63%
same,Necrosis,HCT-116 cells; control 1.58,7.21%
same,"Apoptosis, Total",HCT-116 cells; control 2.06,27.65%
same,IC50,HCT-116 cell line,1.81 µM
same,GI50,UO-31; Homo sapiens,19.4 µM
same,CC50,UO-31; [3],> 100 µM
same,Percent Growth,UO-31; Log10 Concentration -4.0 Molar,2%
same,Percent Growth,UO-31; Log10 Concentration -5.0 Molar,69%
same,Percent Growth,UO-31; Log10 Concentration -6.0 Molar,81%
same,Percent Growth,UO-31; Log10 Concentration -7.0 Molar,89%
same,Percent Growth,UO-31; Log10 Concentration -8.0 Molar,84%
same,GI50,EKVX; Homo sapiens,5.39 µM
same,CC50,EKVX; [3],> 100 µM
same,Percent Growth,EKVX; Log10 Concentration -4.0 Molar,-48%
same,Percent Growth,EKVX; Log10 Concentration -5.0 Molar,36%
same,Percent Growth,EKVX; Log10 Concentration -6.0 Molar,89%
same,Percent Growth,EKVX; Log10 Concentration -7.0 Molar,102%
same,Percent Growth,EKVX; Log10 Concentration -8.0 Molar,98%
same,GI50,SF-268 [2]; Homo sapiens,2.22 µM
same,CC50,SF-268 [2]; [3],31.5 µM
same,Percent Growth,SF-268 [2]; Log10 Concentration -4.0 Molar,-77%
same,Percent Growth,SF-268 [2]; Log10 Concentration -5.0 Molar,-23%
same,Percent Growth,SF-268 [2]; Log10 Concentration -6.0 Molar,89%
same,Percent Growth,SF-268 [2]; Log10 Concentration -7.0 Molar,95%
same,Percent Growth,SF-268 [2]; Log10 Concentration -8.0 Molar,85%
same,GI50,LOX IMVI; Homo sapiens,2.13 µM
same,CC50,LOX IMVI; [3],8.81 µM
same,Percent Growth,LOX IMVI; Log10 Concentration -4.0 Molar,-100%
same,Percent Growth,LOX IMVI; Log10 Concentration -5.0 Molar,-59%
same,Percent Growth,LOX IMVI; Log10 Concentration -6.0 Molar,103%
same,Percent Growth,LOX IMVI; Log10 Concentration -7.0 Molar,102%
same,Percent Growth,LOX IMVI; Log10 Concentration -8.0 Molar,98%
